In PMC5601625, “Defining a therapeutic window for kinase inhibitors in leukemia to avoid neutropenia” (Oncotarget, 2017):
“Also recorded” adds a separate entry of the source. Where two headings read alike, the source gives them in different places.

Key:
[1] = system: primary murine myeloid HPCs (lin-c-Kit+Sca-1- cells); assay: Live cell imaging viability of hematopoietic myeloid progenitor cells
From the text: (C & D) Dose-dependent effects of common chemotherapeutics on GM-CSF-primed primary murine myeloid HPCs C. or GM-CSF-primed primary murine bone-marrow neutrophils D. as assessed by live cell imaging analysis (concentrations as marked). E. Comparison of G-CSF (red/orange) or GM-CSF (blue) priming of myeloid HPCs before treatment with chemotherapeutics as assessed by live cell imaging (concentrations as marked). […] Mean ± SEM with n = 3 independent samples. * p < 0.05.
For purification of myeloid progenitor cells, bone marrow cells were collected in DMEM/10% FCS. After red cell lysis, cells were stained with biotin-conjugated antibodies against Ter119, Gr-1, Mac-1, B220, CD4, CD8 and IL-7Rα and incubated with streptavidin-microbeads (Miltenyi Biotech). Lineage positive cells were depleted by magnetic separation using MACS LS columns and QuadroMACS^TM separator magnets (Miltenyi Biotech). Hematopoietic myeloid progenitor cells that were propidium iodide (PI) negative, lineage-negative, Sca-1 negative and c-Kit positive, were sorted and collected by flow cytometry on a FACSAria or Diva (BD Biosciences). For imaging studies, cells were resuspended in StemPro-34 SFM (Invitrogen). Cells were cultured in 10 ng/mL human G-CSF (Neupogen, Amgen), 10 ng/mL recombinant mouse GM-CSF or 10 ng/mL recombinant human GM-CSF.
The MetaMorph script is available upon request.

[2] = system: primary murine bone-marrow neutrophils; assay: Live cell imaging viability of primary bone-marrow neutrophils; conditions: for effect of chemotherapeutics on neutrophil viability: GM-CSF-primed, dose-dependent, Figure 5D
From the text: Using a high-throughput live cell imaging approach reported previously [15], we examined the effect of the kinase inhibitors on the viability of bone marrow neutrophils to determine their potential to cause neutropenia (Figure 2). Because G-CSF and GM-CSF are dominant regulators of granulopoiesis and neutrophil survival, and are commonly used in a clinical setting to mobilize hematopoietic stem cells into the blood and increase neutrophil production [27–31], we treated cells with these cytokines immediately prior to drug exposure. The addition of either cytokine prevents constitutive neutrophil apoptosis thereby increasing the window for detection of changes in viability induced by drug treatments.
For all above, data represent mean ± SEM from three independent samples.
Mouse bone marrow neutrophils were prepared as described [15]. Neutrophils were resuspended in phenol red-free DMEM/10% FBS for imaging studies. The purity of neutrophil preparations was routinely 96% ± 4% (Mean ± SD, n = 50) as assessed by cytology following May-Grünwald/Giemsa staining.
Kinase inhibitors were purchased from SYN kinase (Melbourne, Australia) and were used at 1 μM, unless otherwise specified, with dilutions performed in assay buffer containing 0.1% DMSO.
Viability was monitored using 2 μg/mL PI (Sigma). Images were captured every 30-60 min by the Zeiss Axiovert 200M Microscope at 37 °C/10% CO2. Quantitative analysis was performed using a custom-scripted MetaMorph (Molecular Devices) journal suite incorporating the count nuclei function, reconstruction & subtraction functions and Integrated Morphometry Analysis to select and analyze cells of interest.

[3] = cited from earlier work
K562 = assay: Cell Titer Glo cell viability assay, 48 h; type: cell-based, human; conditions: 48 h, mean of 2 independent experiments, 0 = less than 10 nM, cell line not given, read-out: IC50 of inhibitors on cell lines, m (mean)
How it was run: (§1)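 Leukemia cells (5 × 10^3 per well, RPMI with 10% FCS) were exposed in duplicate to 2-fold serial dilutions of inhibitors from […] DMSO stocks for 48 h. Viability was read by Cell Titer Glo luminescence; each line was tested on at least two occasions.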

KU-812 = assay: Cell Titer Glo cell viability assay, 48 h; type: cell-based, human; conditions: 48 h, mean of 2 independent experiments, 0 = less than 10 nM, cell line not given, read-out: IC50 of inhibitors on cell lines, m (mean)
How it was run: as §1

HL-60 = assay: Cell Titer Glo cell viability assay, 48 h; type: cell-based, human; conditions: 48 h, mean of 2 independent experiments, 0 = less than 10 nM, cell line not given, read-out: IC50 of inhibitors on cell lines, m (mean)
How it was run: as §1

MV4;11 = assay: Cell Titer Glo cell viability assay, 48 h; type: cell-based, human; conditions: 48 h, mean of 2 independent experiments, 0 = less than 10 nM, cell line not given, read-out: IC50 of inhibitors on cell lines, m (mean)
How it was run: as §1

OCI-AML3 = assay: Cell Titer Glo cell viability assay, 48 h; type: cell-based, human; conditions: 48 h, mean of 2 independent experiments, 0 = less than 10 nM, cell line not given, read-out: IC50 of inhibitors on cell lines, m (mean)
How it was run: as §1

EOL-1 = assay: Cell Titer Glo cell viability assay, 48 h; type: cell-based, human; conditions: 48 h, mean of 2 independent experiments, 0 = less than 10 nM, cell line not given, read-out: IC50 of inhibitors on cell lines, m (mean)
How it was run: as §1

U937 = assay: Cell Titer Glo cell viability assay, 48 h; type: cell-based, human; conditions: 48 h, mean of 2 independent experiments, 0 = less than 10 nM, cell line not given, read-out: IC50 of inhibitors on cell lines, m (mean)
How it was run: as §1

HEL.92.1.7 = assay: Cell Titer Glo cell viability assay, 48 h; type: cell-based, human; conditions: 48 h, mean of 2 independent experiments, 0 = less than 10 nM, cell line not given, read-out: IC50 of inhibitors on cell lines, m (mean)
How it was run: as §1

MOLT4 = assay: Cell Titer Glo cell viability assay, 48 h; type: cell-based, human; conditions: 48 h, mean of 2 independent experiments, 0 = less than 10 nM, cell line not given, read-out: IC50 of inhibitors on cell lines, m (mean)
How it was run: as §1

MEG-01 = assay: Cell Titer Glo cell viability assay, 48 h; type: cell-based, human; conditions: 48 h, mean of 2 independent experiments, 0 = less than 10 nM, cell line not given, read-out: IC50 of inhibitors on cell lines, m (mean)
How it was run: as §1

JURKAT = assay: Cell Titer Glo cell viability assay, 48 h; type: cell-based, human; conditions: 48 h, mean of 2 independent experiments, 0 = less than 10 nM, cell line not given, read-out: IC50 of inhibitors on cell lines, m (mean)
How it was run: as §1

THP-1 = assay: Cell Titer Glo cell viability assay, 48 h; type: cell-based, human; conditions: 48 h, mean of 2 independent experiments, 0 = less than 10 nM, cell line not given, read-out: IC50 of inhibitors on cell lines, m (mean)
How it was run: as §1

[4] = system: human peripheral blood neutrophils; assay: Human neutrophil viability by propidium iodide exclusion, flow cytometry; conditions: G-CSF or GM-CSF primed 1 h; treated 18 h; dose range
Description: Figure 3 Assessment of human neutrophil viability in response to kinase inhibitor treatment Human peripheral blood neutrophils from three healthy donors were primed with G-CSF or GM-CSF for 1 hour before addition of selected kinase inhibitors (as shown) or DMSO (control) at concentrations as indicated. Neutrophil viability was assessed after 18 hours of treatment, by propidium iodide exclusion measured by flow cytometry. Mean ± SEM shown.
Donors were 18 years of age or older and had not taken anti-inflammatory medications during the 2 weeks before donating. […] Human neutrophils were then isolated on a three-layer Percoll gradient as described for mouse bone marrow neutrophils as described. […] Neutrophils were resuspended in DMEM/10%FBS, and primed with 10 ng/mL recombinant human G-CSF (Amgen) or 10 ng/mL recombinant human GM-CSF (Leukine, Sargramostim) for 1 h. Compounds or DMSO carrier were added for […]. Viability was assessed by staining neutrophils with propidium iodide and analyzing on a BD Fortessa.

[5] = system: panel of human leukemia cell lines; assay: Cell Titer Glo cell viability assay, 48 h, statements across the whole panel
Description: The activity of the kinase inhibitor collection against a panel of human leukemia cell lines was determined in cell viability assays run over 48 h using the Cell Titer Glo reagent.
Figure 1 Effects of kinase inhibition on the proliferation of leukemia cells A. Human leukemia cell lines were treated with duplicate serial dilutions of kinase inhibitors and the effect on cell viability was determined by Cell Titer Glo assay after 48 hours. Data shown represents the mean IC50 of each condition from 2 independent experiments. HL-60 cells were treated with serial dilutions of mTor/PI3K B. and MEK C. inhibitors and the effect on cell viability was determined after 48 hours. Data shown is the mean ± SEM of 3 independent experiments.
Leukemia and lymphoma cell lines were grown in RPMI containing 10% FCS. […] Cell lines are routinely tested for mycoplasma and genotyped by short tandem repeating (STR) profiling to confirm identity.
Compounds were obtained from SynMedChem and dissolved at […] in DMSO. Serial 2-fold dilutions of each compound were prepared in DMSO using a liquid handling robot (Janus, Perkin Elmer). Each dilution (100nL) was transferred to duplicate tissue culture plates containing 50 μL of media containing 5 × 10^3 cells using a 384 well pin tool. Cells were incubated for 48 h and cell viability was determined using Cell Titer Glow reagents as described by the manufacturer (Promega). Data was acquired using a luminescent plate reader (Envision, Perkin Elmer) and analysed using Activity Base (IDBS, Guilford, UK) and visualised using Spotfire (TIBCO, Palo Alto, CA) as described previously. Each cell line was assayed in independent experiments on at least two occasions. […] Serial 2-fold dilutions of each compound were prepared in media containing 0.2% DMSO and 50 μl of each dilution was added to 10^4 cells in 50 μl of media. Cells were incubated for 48 h and cell viability was determined using Cell Titer Glow assay as described above.

For N.N.O=C([O-])C1(C(=O)[O-])CCC1.[Pt+2] [carboplatin], the “effect of chemotherapeutics on HPC viability” value ([1]; GM-CSF-primed, dose-dependent, Figure 5C) is listed as “no effects”, the “effect of chemotherapeutics on neutrophil viability” value [2] is listed as “no effects” and the “neutropenia in the clinic” value [3] is listed as “induce neutropenia in the clinic”.
With CC(C)(C)c1cnc(CSc2cnc(NC(=O)C3CCNCC3)s2)o1 [SNS-032] the “effect on mouse neutrophil viability (words)” value ([2]; G-CSF- or GM-CSF-primed, inhibitors at 1 μM, over 24 hours) was “induced rapid cell death; also recorded: significant impact on neutrophil viability”, the EC50 ([2]; Mus musculus, Neutrophil, 12 h, read-out: EC50 neutrophil viability, Bak-/- Bax deficient) was over 1000 nM and the EC50 ([2]; Mus musculus, Neutrophil, 12 h, read-out: EC50 neutrophil viability, Mcl-1+/-) was 80 nM. It also gave an EC50 ([2]; Mus musculus, Neutrophil, 12 h, read-out: EC50 neutrophil viability, wild-type) of 182 nM, an EC50 ([2]; Mus musculus, Neutrophil, read-out: EC50 neutrophil viability, G-CSF primed) of 194 nM and an EC50 ([2]; Mus musculus, Neutrophil, read-out: EC50 neutrophil viability, GM-CSF primed) of 218 nM. The “dose-limiting side-effect in patients” value ([3]; patients with chronic lymphocytic leukemia and multiple myeloma) was “neutropenia as the dose-limiting side-effect”, the IC50 (K562; Homo sapiens) was 720 nM and the IC50 (KU-812; Homo sapiens, KU812) was 610 nM. For the same compound, the IC50 (HL-60; Homo sapiens) was 100 nM, the IC50 (MV4;11; Homo sapiens) was 150 nM and the IC50 (OCI-AML3; Homo sapiens, OCI-AML-3) was 190 nM. The IC50 (EOL-1; Homo sapiens, EOL1) was 90 nM, the IC50 (U937; Homo sapiens, U-937) was 70 nM and the IC50 (HEL.92.1.7; Homo sapiens) was 1330 nM. The IC50 (MOLT4; Homo sapiens, MOLT-4) was 290 nM, the IC50 (MEG-01; Homo sapiens) was 580 nM and the IC50 (JURKAT; Homo sapiens) was 160 nM. The IC50 (THP-1; Homo sapiens) was 140 nM and the “sensitivity of human neutrophils” value [4] was “sensitive”.
In the case of Cc1ccc([N+](=O)[O-])cc1S(=O)(=O)N(C)/N=C/c1cnc2ccc(Br)cn12 [PIK-75], the “effect of kinase inhibitors on HPC viability” value ([1]; G-CSF- or GM-CSF-primed, 1 μM, over 24 hours) is reported as “active against both G-CSF- and GM-CSF-treated HPC”, the EC50 ([2]; read-out: EC50 neutrophil viability, Mcl-1+/-, Mcl-1+/- neutrophils, 12 hour time-point) is reported as 57 nM and the EC50 ([2]; read-out: EC50 neutrophil viability, wild-type, WT neutrophils, 12 hour time-point) is reported as 228 nM. The IC50 (K562) was 330 nM, the IC50 (KU-812) was 140 nM and the IC50 (HL-60) was 60 nM. For the same compound, the IC50 (MV4;11) was 10 nM, the IC50 (OCI-AML3) was 100 nM and the IC50 (EOL-1) was 40 nM. It also gave an IC50 (U937) of 60 nM, an IC50 (HEL.92.1.7) of 80 nM and an IC50 (MOLT4) of 130 nM. For the same compound, the IC50 (MEG-01) was 290 nM, the IC50 (JURKAT) was 90 nM and the IC50 (THP-1) was 100 nM. For the same compound, the “sensitivity of human neutrophils” value [4] was “sensitive”, the “cytotoxicity to leukemia cell lines” value ([5]; 12 leukemia cell lines) was “potently cytotoxic to all lines examined” and the IC50 ([5]; read-out: IC50 across most of the cell lines examined, Cell Titer Glo, most of 12 leukemia lines) was at most 10 nM.
For CC(=O)O[C@@]12CO[C@@H]1C[C@H](O)[C@@]1(C)C(=O)[C@H](O)C3=C(C)[C@@H](OC(=O)[C@H](O)[C@@H](NC(=O)OC(C)(C)C)c4ccccc4)C[C@@](O)([C@@H](OC(=O)c4ccccc4)[C@H]21)C3(C)C [docetaxel], the “effect of chemotherapeutics on HPC viability” value [1] is given as “no effects”, the “effect of chemotherapeutics on neutrophil viability” value [2] is given as “no effects” and the “neutropenia in the clinic” value [3] is given as “induce neutropenia in the clinic”.
